Publication PMC4786259 (PLoS ONE, 2016)

Test system: WT and dopamine transporter knockout (DAT-KO) mice
Assay: Prepulse inhibition in WT and DAT-KO mice
Details: 2 mg/kg clozapine i.p.

CN1CCN(C2=Nc3cc(Cl)ccc3Nc3ccccc32)CC1 [clozapine]
PPI in DAT-KO mice: restored
PPI in WT mice: not affected
